Test results from patent US9492453B2 (priority 2007, dated 2016).
Where two headings read alike, the source gives them in different places.

Legend:
[1] = tested on: PKB (Akt); conditions: read-out: Cellular PKB Mean IC50; MDA-MB-468 cells, phosphorylation of Serine-9 of GSK-3β, 2 hours incubation
[2] = molecular target: AKT1 (PKBα) (Homo sapiens (Human), UniProt P31749); conditions: read-out: In vitro PKBα Mean IC50, AKT1/PKBα active enzyme, Caliper LabChip LC3000
Chain of AKT1 (PKBα) (P31749 whole entry): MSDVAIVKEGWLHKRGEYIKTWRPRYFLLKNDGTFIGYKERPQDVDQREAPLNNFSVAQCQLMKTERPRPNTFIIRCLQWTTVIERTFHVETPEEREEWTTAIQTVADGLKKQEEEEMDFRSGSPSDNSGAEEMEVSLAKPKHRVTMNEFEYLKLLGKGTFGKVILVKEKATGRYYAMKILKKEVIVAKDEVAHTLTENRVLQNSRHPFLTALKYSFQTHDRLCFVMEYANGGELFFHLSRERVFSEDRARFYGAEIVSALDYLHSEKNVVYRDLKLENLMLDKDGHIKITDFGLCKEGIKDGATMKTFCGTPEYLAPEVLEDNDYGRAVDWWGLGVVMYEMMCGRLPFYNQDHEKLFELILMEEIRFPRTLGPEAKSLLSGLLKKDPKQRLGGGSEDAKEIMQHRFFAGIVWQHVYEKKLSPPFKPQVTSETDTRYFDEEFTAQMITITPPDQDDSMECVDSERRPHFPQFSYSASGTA

IC50 [1]	IC50 [2]	IC50 ([2]; tested once only)	SMILES
270 nM	9.7 nM	–	NCC(NC(=O)C1(N)CCN(c2ncnc3[nH]ccc23)CC1)c1ccc(Cl)cc1 (stereo not drawn) [Example 5, 4-amino-N-(2-amino-1-(4-chlorophenyl)ethyl)-1-(7H-pyrrolo[2,3-d]pyrimidin-4-yl)piperidine-4-carboxamide]
20 nM	1.2 nM	–	C[C@H](NC(=O)C1(CN)CCN(c2ncnc3[nH]ccc23)CC1)c1ccc(Cl)cc1 [Example 6, (S)-4-(aminomethyl)-N-(1-(4-chlorophenyl)ethyl)-1-(7H-pyrrolo[2,3-d]pyrimidin-4-yl)piperidine-4-carboxamide]
250 nM	4.2 nM	–	CC(=O)NCCC(NC(=O)C1(N)CCN(c2ncnc3[nH]ccc23)CC1)c1ccc(Cl)cc1 (stereo not drawn) [Example 10, N-(3-acetamido-1-(4-chlorophenyl)propyl)-4-amino-1-(7H-pyrrolo[2,3-d]pyrimidin-4-yl)piperidine-4-carboxamide]
100 nM	–	–	NCC1(C(=O)NC(CCO)c2ccc(Cl)cc2)CCN(c2ncnc3[nH]ccc23)CC1 (stereo not drawn) [Example 12, 4-(aminomethyl)-N-(1-(4-chlorophenyl)-3-hydroxypropyl)-1-(7H-pyrrolo[2,3-d]pyrimidin-4-yl)piperidine-4-carboxamide]
940 nM	3 nM	–	NCCC(NC(=O)C1(N)CCN(c2ncnc3[nH]ccc23)CC1)c1ccc(Cl)cc1 (stereo not drawn) [Example 14, 4-amino-N-(3-amino-1-(4-chlorophenyl)propyl)-1-(7H-pyrrolo[2,3-d]pyrimidin-4-yl)piperidine-4-carboxamide]
240 nM	12 nM	–	C[C@@H](NC(=O)C1(CN)CCN(c2ncnc3[nH]ccc23)CC1)c1ccc(Cl)cc1 [Example 17, (R)-4-(aminomethyl)-N-(1-(4-chlorophenyl)ethyl)-1-(7H-pyrrolo[2,3-d]pyrimidin-4-yl)piperidine-4-carboxamide]
1400 nM	16 nM	–	N#Cc1ccc([C@H](CCO)NC(=O)C2(N)CCN(c3ncnc4[nH]ccc34)CC2)cc1 [Example 18, (S)-4-amino-N-(1-(4-cyanophenyl)-3-hydroxypropyl)-1-(7H-pyrrolo[2,3-d]pyrimidin-4-yl)piperidine-4-carboxamide]
260 nM	–	–	NC1(C(=O)N[C@@H](CCO)c2ccc(Cl)cc2)CCN(c2ncnc3[nH]cc(Br)c23)CC1 [Example 19, (S)-4-amino-1-(5-bromo-7H-pyrrolo[2,3-d]pyrimidin-4-yl)-N-(1-(4-chlorophenyl)-3-hydroxypropyl)piperidine-4-carboxamide]
980 nM	–	20 nM	NC1(C(=O)N[C@@H](CCO)c2ccc(Cl)cc2)CCN(c2ncnc3[nH]ncc23)CC1 [Example 20, (S)-4-amino-N-(1-(4-chlorophenyl)-3-hydroxypropyl)-1-(1H-pyrazolo[3,4-d]pyrimidin-4-yl)piperidine-4-carboxamide]
> 3100 nM	–	59 nM	NC1(C(=O)N[C@@H](CCO)c2ccccc2)CCN(c2ncnc3[nH]ccc23)CC1 [Example 21, (S)-4-amino-N-(3-hydroxy-1-phenylpropyl)-1-(7H-pyrrolo[2,3-d]pyrimidin-4-yl)piperidine-4-carboxamide]
170 nM	7.5 nM	–	NC1(C(=O)N[C@@H](CCO)c2ccc(Cl)cc2)CCN(c2ncnc3[nH]cnc23)CC1 [Example 22, (S)-4-amino-N-(1-(4-chlorophenyl)-3-hydroxypropyl)-1-(9H-purin-6-yl)piperidine-4-carboxamide]
80 nM	1.3 nM	–	NCC1(C(=O)N[C@@H](CCO)c2ccc(Cl)cc2)CCN(c2ncnc3[nH]ccc23)CC1 [Example 23, (S)-4-(aminomethyl)-N-(1-(4-chlorophenyl)-3-hydroxypropyl)-1-(7H-pyrrolo[2,3-d]pyrimidin-4-yl)piperidine-4-carboxamide]
60 nM	2.2 nM	–	NC1(C(=O)N[C@@H](CCO)c2ccc(Br)cc2)CCN(c2ncnc3[nH]ccc23)CC1 [Example 24, (S)-4-amino-N-(1-(4-bromophenyl)-3-hydroxypropyl)-1-(7H-pyrrolo[2,3-d]pyrimidin-4-yl)piperidine-4-carboxamide]
90 nM	5.6 nM	–	CCN(CC)CC[C@H](NC(=O)C1(N)CCN(c2ncnc3[nH]ccc23)CC1)c1ccc(Cl)cc1 [Example 26, (S)-4-amino-N-(1-(4-chlorophenyl)-3-(diethylamino)propyl)-1-(7H-pyrrolo[2,3-d]pyrimidin-4-yl)piperidine-4-carboxamide]
370 nM	–	–	NC1(C(=O)N[C@@H](CCO)c2ccc(Cl)cc2)CCN(c2ncnc3[nH]cc(C4CC4)c23)CC1 [Example 27, (S)-4-amino-N-(1-(4-chlorophenyl)-3-hydroxypropyl)-1-(5-cyclopropyl-7H-pyrrolo[2,3-d]pyrimidin-4-yl)piperidine-4-carboxamide]
470 nM	4.5 nM	–	CNCCC(NC(=O)C1(N)CCN(c2ncnc3[nH]ccc23)CC1)c1ccc(Cl)cc1 (stereo not drawn) [Example 28, 4-amino-N-(1-(4-chlorophenyl)-3-(methylamino)propyl)-1-(7H-pyrrolo[2,3-d]pyrimidin-4-yl)piperidine-4-carboxamide]
1100 nM	24 nM	–	C[C@H](NC(=O)C1(N)CCN(c2ncnc3[nH]nc(Br)c23)CC1)c1ccc(Cl)cc1 [Example 31, 4-amino-1-(3-bromo-1H-pyrazolo[3,4-d]pyrimidin-4-yl)-N-[(1S)-1-(4-chlorophenyl)ethyl]piperidine-4-carboxamide]
420 nM	12 nM	–	C[C@H](NC(=O)C1(N)CCN(c2ncnc3[nH]cc(Cl)c23)CC1)c1ccc(Cl)cc1 [Example 32, 4-amino-N-[(1S)-1-(4-chlorophenyl)ethyl]-1-(5-chloro-7H-pyrrolo[2,3-d]pyrimidin-4-yl)piperidine-4-carboxamide]
240 nM	14 nM	–	NC1(C(=O)N[C@@H](CCO)c2ccc(Cl)cc2)CCN(c2ncnc3[nH]nc(Br)c23)CC1 [Example 33, 4-amino-1-(3-bromo-1H-pyrazolo[3,4-d]pyrimidin-4-yl)-N-[(1S)-1-(4-chlorophenyl)-3-hydroxypropyl]piperidine-4-carboxamide]
350 nM	9.2 nM	–	NC1(C(=O)N[C@@H](CCO)c2ccc(Cl)cc2)CCN(c2ncnc3[nH]cc(Cl)c23)CC1 [Example 34, 4-amino-N-[(1S)-1-(4-chlorophenyl)-3-hydroxypropyl]-1-(5-chloro-7H-pyrrolo[2,3-d]pyrimidin-4-yl)piperidine-4-carboxamide]
280 nM	4 nM	–	C[C@H](NC(=O)C1(N)CCN(c2ncnc3[nH]cc(Br)c23)CC1)c1ccc(Cl)cc1 [Example 35, 4-amino-1-(5-bromo-7H-pyrrolo[2,3-d]pyrimidin-4-yl)-N-[(1S)-1-(4-chlorophenyl)ethyl]piperidine-4-carboxamide]
380 nM	14 nM	–	Cc1c[nH]c2ncnc(N3CCC(N)(C(=O)N[C@@H](CCO)c4ccc(Cl)cc4)CC3)c12 [Example 36, 4-amino-N-[(1S)-1-(4-chlorophenyl)-3-hydroxypropyl]-1-(5-methyl-7H-pyrrolo[2,3-d]pyrimidin-4-yl)piperidine-4-carboxamide]
550 nM	19 nM	–	Cc1c[nH]c2ncnc(N3CCC(N)(C(=O)N[C@@H](C)c4ccc(Cl)cc4)CC3)c12 [Example 37, 4-amino-N-[(1S)-1-(4-chlorophenyl)ethyl]-1-(5-methyl-7H-pyrrolo[2,3-d]pyrimidin-4-yl)piperidine-4-carboxamide]
360 nM	5.4 nM	–	CC(C)(O)C[C@H](NC(=O)C1(N)CCN(c2ncnc3[nH]ccc23)CC1)c1ccc(Cl)cc1 [Example 38, 4-amino-N-[(1S)-1-(4-chlorophenyl)-3-hydroxy-3-methylbutyl]-1-(7H-pyrrolo[2,3-d]pyrimidin-4-yl)piperidine-4-carboxamide]
1900 nM	–	–	C[C@H](NC(=O)C1(N)CCN(c2ncnc3[nH]ccc23)CC1)c1ccc(C#N)cc1 [Example 39, 4-amino-N-[(1S)-1-(4-cyanophenyl)ethyl]-1-(7H-pyrrolo[2,3-d]pyrimidin-4-yl)piperidine-4-carboxamide]
1900 nM	32 nM	–	NC1(C(=O)N[C@@H](CCO)c2cccc(Cl)c2)CCN(c2ncnc3[nH]ccc23)CC1 [Example 40, 4-amino-N-[(1S)-1-(3-chlorophenyl)-3-hydroxypropyl]-1-(7H-pyrrolo[2,3-d]pyrimidin-4-yl)piperidine-4-carboxamide]
540 nM	16 nM	–	C[C@H](NC(=O)C1(N)CCN(c2ncnc3[nH]ccc23)CC1)c1ccc(C(F)(F)F)cc1 [Example 41, 4-amino-1-(7H-pyrrolo[2,3-d]pyrimidin-4-yl)-N-{(1S)-1-[4-(trifluoromethyl)phenyl]ethyl}piperidine-4-carboxamide]
4300 nM	32 nM	–	C[C@@H](NC(=O)C1(N)CCN(c2ncnc3[nH]ccc23)CC1)c1ccc(Br)cc1 [Example 42, 4-amino-N-[(1R)-1-(4-bromophenyl)ethyl]-1-(7H-pyrrolo[2,3-d]pyrimidin-4-yl)piperidine-4-carboxamide]
770 nM	230 nM	–	N#CC(NC(=O)C1(N)CCN(c2ncnc3[nH]ccc23)CC1)c1ccc(Cl)cc1 (stereo not drawn) [Example 45, 4-amino-N-[(4-chlorophenyl)(cyano)methyl]-1-(7H-pyrrolo[2,3-d]pyrimidin-4-yl)piperidine-4-carboxamide]
190 nM	4.3 nM	–	CN1CCN(CC[C@H](NC(=O)C2(N)CCN(c3ncnc4[nH]ccc34)CC2)c2ccc(Cl)cc2)CC1 [Example 50, 4-amino-N-[(1S)-1-(4-chlorophenyl)-3-(4-methylpiperazin-1-yl)propyl]-1-(7H-pyrrolo[2,3-d]pyrimidin-4-yl)piperidine-4-carboxamide]

SMILES	IC50 [1]	IC50 [2]	IC50 ([2]; tested once only)
NC1(C(=O)N[C@H](CCO)c2ccc(Cl)cc2)CCN(c2ncnc3[nH]ccc23)CC1 [Example 15, (R)-4-amino-N-(1-(4-chlorophenyl)-3-hydroxypropyl)-1-(7H-pyrrolo[2,3-d]pyrimidin-4-yl)piperidine-4-carboxamide]	> 3100 nM	–	–
